From ChEMBL document CHEMBL5143623, “Discovery of novel spiro compound as RAF kinase inhibitor with in vitro potency against KRAS mutant cancer” (Bioorg Med Chem Lett, 2022)
In brackets after ≈: the same amount, converted by molar mass. Activity calls are given as the source filed them. The calls are words filed in the database; no cut-off is given here.

Experiments:
[1] = target: RAF proto-oncogene serine/threonine-protein kinase (Homo sapiens, UniProt P04049); experiment: Inhibition of human recombinant cRAF measured after 1 hr by TR-FRET assay
NCI-H358 [2] = experiment: Growth inhibition of human H358 cells expressing KRAS […] mutant measured after 3 days by Cell-titer Glo assay; assay type: functional; conditions: NCI-H358, 72 h, time 3 day
[3] = Hepatic clearance in mouse liver microsomes; assay type: ADME, Microsome
[4] = target: Voltage-gated inwardly rectifying potassium channel KCNH2 (Homo sapiens, UniProt Q12809); experiment: Inhibition of hERG; assay type: toxicity
[5] = Hepatic clearance in rat liver microsomes; assay type: ADME, Microsome
[6] = Stability of compound in Dog liver microsomes assessed as half life; assay type: ADME, Canis lupus familiaris, Microsome
[7] = Stability of compound in human liver microsomes assessed as half life; assay type: ADME, Microsome
Cytochrome P450 3A4 [8] = target: T1, Cytochrome P450 3A4 (Homo sapiens, UniProt P08684); experiment: Inhibition of CYP3A4 in human liver microsomes using testosterone as substrate; parameters: species or system Microsome
[9] = Stability of compound in mouse liver microsomes assessed as half life; assay type: ADME, Microsome
Cytochrome P450 3A4 [10] = target: T1, Cytochrome P450 3A4; experiment: Inhibition of CYP3A4 in human liver microsomes using midazolam as substrate; parameters: species or system Microsome
Cytochrome P450 2C9 = Cytochrome P450 2C9 (Homo sapiens, UniProt P11712); experiment: Inhibition of CYP2C9 in human liver microsomes; assay type: ADME, Microsome
Cytochrome P450 2C19 = Cytochrome P450 2C19 (Homo sapiens, UniProt P33261); experiment: Inhibition of CYP2C19 in human liver microsomes; assay type: ADME, Microsome
[11] = Hepatic clearance in dog liver microsomes; assay type: ADME, Canis lupus familiaris, Microsome
Cytochrome P450 1A2 = target: T2, Cytochrome P450 1A2 (Homo sapiens, UniProt P05177); experiment: Inhibition of CYP1A2 in human liver microsomes; assay type: ADME, Microsome
T2 sequence (P05177 whole entry): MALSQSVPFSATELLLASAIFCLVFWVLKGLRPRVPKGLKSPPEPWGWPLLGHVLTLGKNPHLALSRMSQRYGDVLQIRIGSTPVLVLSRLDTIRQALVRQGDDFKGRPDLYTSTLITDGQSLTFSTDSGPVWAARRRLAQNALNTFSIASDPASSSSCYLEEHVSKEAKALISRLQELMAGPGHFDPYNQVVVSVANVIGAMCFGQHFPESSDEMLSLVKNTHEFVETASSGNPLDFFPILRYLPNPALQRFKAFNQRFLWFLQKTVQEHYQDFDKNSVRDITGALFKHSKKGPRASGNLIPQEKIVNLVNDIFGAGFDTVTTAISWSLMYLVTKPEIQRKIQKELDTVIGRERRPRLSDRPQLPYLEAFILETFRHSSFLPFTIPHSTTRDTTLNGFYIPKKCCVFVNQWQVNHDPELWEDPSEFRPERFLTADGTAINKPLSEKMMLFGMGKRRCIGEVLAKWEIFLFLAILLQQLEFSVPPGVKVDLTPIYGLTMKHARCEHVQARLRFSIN

[12] = Hepatic clearance in human liver microsomes; assay type: ADME, Microsome
NCI-H358 [13] = experiment: Effect on Erk signalling pathway in human H358 cells assessed as increase in Erk phosphorylation by HTRF assay; assay type: functional, cell-based
Cytochrome P450 2D6 = Cytochrome P450 2D6 (Homo sapiens, UniProt P10635); experiment: Inhibition of CYP2D6 in human liver microsomes; parameters: species or system Microsome
[14] = Solubility of compound in PBS at pH 7.4; assay type: physicochemical
[15] = Stability of compound in rat liver microsomes assessed as half life; assay type: ADME, Microsome

RAF proto-oncogene serine/threonine-protein kinase, sequence (P04049 whole entry): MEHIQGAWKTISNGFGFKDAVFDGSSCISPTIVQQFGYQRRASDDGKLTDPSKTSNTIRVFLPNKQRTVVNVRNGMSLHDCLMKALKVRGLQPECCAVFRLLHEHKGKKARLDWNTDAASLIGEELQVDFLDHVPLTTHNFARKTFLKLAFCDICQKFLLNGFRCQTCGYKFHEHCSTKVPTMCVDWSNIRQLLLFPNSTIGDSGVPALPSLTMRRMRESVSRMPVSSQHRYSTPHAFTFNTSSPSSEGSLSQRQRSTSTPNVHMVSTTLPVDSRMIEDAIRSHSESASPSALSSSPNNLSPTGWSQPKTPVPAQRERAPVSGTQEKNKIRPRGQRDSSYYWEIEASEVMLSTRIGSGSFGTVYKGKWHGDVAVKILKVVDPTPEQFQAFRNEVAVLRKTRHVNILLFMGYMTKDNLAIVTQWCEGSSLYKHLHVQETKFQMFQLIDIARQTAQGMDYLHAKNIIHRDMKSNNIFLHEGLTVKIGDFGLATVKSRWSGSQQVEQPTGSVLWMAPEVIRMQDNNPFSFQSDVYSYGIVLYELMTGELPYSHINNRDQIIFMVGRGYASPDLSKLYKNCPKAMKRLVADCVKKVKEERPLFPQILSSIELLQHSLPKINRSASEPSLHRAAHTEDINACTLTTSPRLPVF
T1 sequence (P08684 whole entry): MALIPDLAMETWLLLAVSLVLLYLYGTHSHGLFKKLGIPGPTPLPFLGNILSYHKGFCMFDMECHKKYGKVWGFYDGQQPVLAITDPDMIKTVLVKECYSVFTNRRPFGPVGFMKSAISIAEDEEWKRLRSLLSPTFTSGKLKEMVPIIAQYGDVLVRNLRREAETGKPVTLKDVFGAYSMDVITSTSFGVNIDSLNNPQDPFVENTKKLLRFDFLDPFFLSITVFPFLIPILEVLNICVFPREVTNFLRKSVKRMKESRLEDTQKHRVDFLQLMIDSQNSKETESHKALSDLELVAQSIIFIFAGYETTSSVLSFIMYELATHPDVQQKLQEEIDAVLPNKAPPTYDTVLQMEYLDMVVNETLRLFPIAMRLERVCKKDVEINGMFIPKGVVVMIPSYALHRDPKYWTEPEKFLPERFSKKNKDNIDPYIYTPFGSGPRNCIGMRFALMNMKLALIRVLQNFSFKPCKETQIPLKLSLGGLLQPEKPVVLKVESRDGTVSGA
Cytochrome P450 2C9, sequence (P11712 whole entry): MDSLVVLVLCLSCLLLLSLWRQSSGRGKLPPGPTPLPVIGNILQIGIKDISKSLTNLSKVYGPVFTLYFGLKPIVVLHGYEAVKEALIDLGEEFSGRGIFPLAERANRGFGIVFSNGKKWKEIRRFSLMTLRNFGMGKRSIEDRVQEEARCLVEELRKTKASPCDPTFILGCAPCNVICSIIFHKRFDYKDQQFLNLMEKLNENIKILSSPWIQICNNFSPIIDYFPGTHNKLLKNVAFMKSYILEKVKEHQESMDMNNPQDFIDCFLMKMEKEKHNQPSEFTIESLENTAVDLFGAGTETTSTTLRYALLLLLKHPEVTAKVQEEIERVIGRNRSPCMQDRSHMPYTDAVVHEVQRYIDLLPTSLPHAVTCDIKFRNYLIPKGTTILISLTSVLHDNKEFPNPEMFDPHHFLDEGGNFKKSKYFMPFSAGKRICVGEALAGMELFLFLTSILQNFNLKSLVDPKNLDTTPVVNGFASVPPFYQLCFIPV
Cytochrome P450 2D6, sequence (P10635 whole entry): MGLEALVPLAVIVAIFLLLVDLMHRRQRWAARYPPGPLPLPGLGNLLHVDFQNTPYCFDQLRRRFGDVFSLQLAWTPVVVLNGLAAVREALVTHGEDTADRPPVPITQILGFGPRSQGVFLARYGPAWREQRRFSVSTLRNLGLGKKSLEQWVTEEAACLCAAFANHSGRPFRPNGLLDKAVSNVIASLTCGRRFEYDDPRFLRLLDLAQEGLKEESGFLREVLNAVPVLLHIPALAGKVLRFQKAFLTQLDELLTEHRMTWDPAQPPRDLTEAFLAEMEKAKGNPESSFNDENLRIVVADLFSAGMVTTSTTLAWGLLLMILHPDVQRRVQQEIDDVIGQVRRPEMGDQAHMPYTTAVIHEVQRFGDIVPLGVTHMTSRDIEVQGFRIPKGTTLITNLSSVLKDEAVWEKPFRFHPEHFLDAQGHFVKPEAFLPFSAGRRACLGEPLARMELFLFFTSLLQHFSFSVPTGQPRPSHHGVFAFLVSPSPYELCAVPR
Cytochrome P450 2C19, sequence (P33261 whole entry): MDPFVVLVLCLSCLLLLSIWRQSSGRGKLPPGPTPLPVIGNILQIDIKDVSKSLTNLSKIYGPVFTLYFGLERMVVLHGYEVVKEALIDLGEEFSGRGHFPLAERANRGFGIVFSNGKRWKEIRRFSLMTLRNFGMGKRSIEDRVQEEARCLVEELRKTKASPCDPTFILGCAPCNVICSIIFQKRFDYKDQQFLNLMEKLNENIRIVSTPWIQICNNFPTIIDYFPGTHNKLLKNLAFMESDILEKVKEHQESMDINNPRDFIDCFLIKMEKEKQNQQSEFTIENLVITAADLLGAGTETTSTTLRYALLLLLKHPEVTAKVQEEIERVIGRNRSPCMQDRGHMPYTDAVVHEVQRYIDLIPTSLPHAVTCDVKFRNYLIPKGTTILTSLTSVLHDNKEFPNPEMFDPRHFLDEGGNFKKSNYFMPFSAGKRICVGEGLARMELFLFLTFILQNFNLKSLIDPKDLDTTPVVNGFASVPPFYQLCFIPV
Voltage-gated inwardly rectifying potassium channel KCNH2, sequence (Q12809 whole entry): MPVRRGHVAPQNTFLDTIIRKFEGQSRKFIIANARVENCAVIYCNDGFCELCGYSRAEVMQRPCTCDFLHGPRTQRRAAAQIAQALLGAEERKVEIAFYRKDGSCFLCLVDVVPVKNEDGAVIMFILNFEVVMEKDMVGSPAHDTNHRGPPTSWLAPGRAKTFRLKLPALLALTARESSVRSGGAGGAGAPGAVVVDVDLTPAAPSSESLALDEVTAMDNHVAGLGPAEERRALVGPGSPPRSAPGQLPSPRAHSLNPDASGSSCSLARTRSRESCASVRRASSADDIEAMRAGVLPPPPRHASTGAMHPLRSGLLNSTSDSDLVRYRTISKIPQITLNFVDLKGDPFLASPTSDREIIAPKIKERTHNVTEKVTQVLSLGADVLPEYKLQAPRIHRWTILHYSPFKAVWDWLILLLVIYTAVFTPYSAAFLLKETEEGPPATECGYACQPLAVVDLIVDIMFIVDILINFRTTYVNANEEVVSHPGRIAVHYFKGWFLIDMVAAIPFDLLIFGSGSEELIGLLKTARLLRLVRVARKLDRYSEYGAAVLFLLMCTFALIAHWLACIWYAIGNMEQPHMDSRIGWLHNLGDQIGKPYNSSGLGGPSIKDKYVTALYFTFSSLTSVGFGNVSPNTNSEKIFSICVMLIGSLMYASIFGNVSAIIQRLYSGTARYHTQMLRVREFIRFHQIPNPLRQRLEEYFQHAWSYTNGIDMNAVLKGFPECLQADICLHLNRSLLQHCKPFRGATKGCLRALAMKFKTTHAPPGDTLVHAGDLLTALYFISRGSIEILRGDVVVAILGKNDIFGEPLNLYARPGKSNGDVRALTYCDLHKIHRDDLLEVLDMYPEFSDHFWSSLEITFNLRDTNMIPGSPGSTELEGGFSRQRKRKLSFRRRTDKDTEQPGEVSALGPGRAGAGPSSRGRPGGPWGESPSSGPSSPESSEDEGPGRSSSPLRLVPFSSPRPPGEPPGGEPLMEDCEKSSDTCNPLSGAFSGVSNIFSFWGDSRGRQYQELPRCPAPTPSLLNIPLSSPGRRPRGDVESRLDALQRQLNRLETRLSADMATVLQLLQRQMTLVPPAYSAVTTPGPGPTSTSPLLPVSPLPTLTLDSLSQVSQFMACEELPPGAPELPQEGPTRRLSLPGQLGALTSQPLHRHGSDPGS

Cc1ccc(NC(=O)c2ccnc(C(F)(F)F)c2)cc1-c1ccc2c(c1)OC1(CCNCC1)NC2=O
IC50 [1]: 0.019 µM
GI50 (NCI-H358 [2]): 15 µM

Cc1ccc(NC(=O)c2ccnc(C(F)(F)F)c2)cc1-c1ccc2c(c1)OC1(CCOCC1)CC2
IC50 [1]: 0.036 µM
GI50 (NCI-H358 [2]): 13 µM

Cc1ccc(NC(=O)c2ccnc(C(F)(F)F)c2)cc1-c1ccc2c(c1)OC1(CCOCC1)CC2=O
CLH [3]: 61.6 µL/min/g
IC50 [1]: 0.015 µM
IC50 [4]: 3.4 µM
CLH [5]: 52.2 µL/min/g
half-life [6]: 32.4 min
half-life [7]: 8.1 min
IC50 (Cytochrome P450 3A4 [8]): > 30 µM
half-life [9]: 28.1 min
IC50 (Cytochrome P450 3A4 [10]): > 30 µM
IC50 (Cytochrome P450 2C9): > 30 µM
IC50 (Cytochrome P450 2C19): > 30 µM
CLH [11]: 20.6 µL/min/g
IC50 (Cytochrome P450 1A2): > 30 µM
CLH [12]: 18.3 µL/min/g
GI50 (NCI-H358 [2]): 4.2 µM
Activity (NCI-H358 [13]): Active
IC50 (Cytochrome P450 2D6): > 30 µM
solubility [14]: 0.46 µM (≈ 0.228 µg/mL)
half-life [15]: 18.5 min

Cc1ccc(NC(=O)c2ccnc(C(F)(F)F)c2)cc1-c1ccc2c(c1)NC1(CCOCC1)NS2(=O)=O
IC50 [1]: 0.06 µM
GI50 (NCI-H358 [2]): 19 µM

Cc1ccc(NC(=O)c2ccnc(C(F)(F)F)c2)cc1-c1cnc2c(c1)OC1(CCOCC1)NC2=O
IC50 [1]: 0.028 µM
GI50 (NCI-H358 [2]): 8.7 µM
